# Measurements reported in patent publication US20170234853A1, “METHOD FOR DETERMINING THE STRUCTURAL PROFILE OF A FIBRIN CLOT REFLECTING THE STABILITY THEREOF, IN ORDER TO PREDICT THE RISK OF BLEEDING, THROMBOSIS OR RETHROMBOSIS” (DIAGNOSTICA STAGO, priority 2014, published 2017).
# System: fibrin clot
# Assay: Structural profile of fibrin clot, Protocol C on STA-R with tissue factor and plasminogen activator (TF+t-PA)
# Type: biochemical
# Protocol: Protocol C (With t-PA, Method on STA-R® with Tissue Factor and Plasminogen Activator):
# To 8 cuvettes of the STA-R® Evolution Expert Series automated device (Stago), are added, simultaneously by the instrument: • 200 μl of a sample of pure plasma, • 50 μl of a [TF 2 to 5 pM final concentration+PL 4 μM final concentration+tPA 0.1 to 0.2 μg/ml final concentration] mixture.
# The automated device agitates by means of the arm, and carries out an incubation for 300 seconds at 37° C.
# It then adds 50 μl of CaCl2 at a final concentration of 16.7 mM, and agitates by means of the needle of the initiating reagent.
# Finally, the automated device measures the number of protofibrils at the 2 wavelengths of 540 nm and 780 nm as a function of time for 30 minutes.
# To 8 cuvettes of the STA-R® Evolution Expert Series automated device (Stago), are added, simultaneously by the instrument: • 200 μl of sample of pure plasma from 9 patients with normal hemostatis results, of a frozen plasma deficient in PAI-1, of 3 control plasmas at 0, 20 and 40 AU/ml of PAI-1, of a protein S-depleted plasma, of a TFPI-depleted plasma and of 3 plasmas with an overload of rivaroxaban at 0, 100 and 200 ng/ml, • 50 μl of a [TF 2 to 5 pM final concentration+PL 4 μM final concentration+t-PA 150 ng/ml] mixture.
# It then adds 50 μl of CaCl2 at a final concentration of 16.7 mM, and agitates by means of the needle.
smiles,measurement,setting,value
O=C(NC[C@H]1CN(c2ccc(N3CCOCC3=O)cc2)C(=O)O1)c1ccc(Cl)s1 [rivaroxaban],downward slope of the protofibril plateau,"plasma containing rivaroxaban, TF + t-PA 150 ng/ml",all the greater the faster the lysis
same,"protofibril plateau (duration), reflecting the stability of the clot","plasmas with an overload of rivaroxaban at 0, 100 and 200 ng/ml, TF 2 to 5 pM, t-PA 150 ng/ml, 30 minutes",shortened proportionally to the concentration
